Experimental findings from US20130225694A1, “COMPOSITIONS AND METHODS OF INHIBITING RETINAL DEGENERATION” (Oklahoma Medical Research Foundation, priority 2012, published 2013) are described below.

One data set has as its system mouse retina. The data set can be described thus: Light-damage protection by topical PBN eye drops in mice (ERG). The data set is classed as in vivo. The conditions noted are these: 10% PBN eye drop in V1 or V2; 3,000 lux 6 h; ERG five days after. As to the method:
After topical application of PBN, light-damage was done at 3,000 lux for 6 h. ERG response were recorded five days after light-damage. Two vehicles were used to solubilize and make 10% PBN eye drop formulation for topical application on mouse eye, vehicle 1 (V-1) and vehicle 2 (V-2).
After topical application of PBN, light-damage was done at 3,000 lux for 6 h. ERG responses were recorded five days after light-damage. Two vehicles were used to solubilize and make the 10% PBN eye drop formulation for topical application on mouse eyes, vehicle 1 (V-1) and vehicle 2 (V-2). […] Vehicle 1 contains 10 mM potassium borate/bicarbonate buffer (pH 7.2), glycerine, 1.0%, carboxymethylcellulose 0.3%, benzyl alcohol 0.3%, and 30% 1-methyl-2-pyrrolidinone (a solubilizing enhancer, a.k.a., N-Methyl-2-Pyrrolidone—“NMP”). Vehicle 2 contains 137 mM sodium chloride, 2.7 mM potassium chloride in 10 mM phosphate buffer (pH 7.4), and 30% 1-methyl-2-pyrrolidinone.

In data set [1] the test system is retinal retinol dehydrogenases (RDHs). The data set can be described thus: Assay for retinal RDH activity in mouse retinal microsomes. Type of data set: biochemical. Particulars: 2 mM PBN, NADPH-dependent reduction of all-trans-retinal. The method, then:
Assay for retinal RDH activity—The effect of PBN on retinal dehydrogenase (RDH) enzymes was determined in vitro using mouse retinal microsomes. […] Homogenates were centrifuged at 10,000 g for 10 minutes at 4° C. The resulting supernatants were then centrifuged at 100,000 g for 1 hour at 4° C., and microsomal pellets were resuspended in storage buffer [50 mM Tris-Cl (pH 7.2), 1 mM EDTA, 20% glycerol, 1 mM dithiothreitol, and the protease inhibitors described above]. Protein concentrations were measured, and microsomal fractions were stored at −80° C. after snap freezing in liquid nitrogen.
Reactions were carried out in 1 ml reaction buffer [100 mM Tris-HCl (pH 7.2), 200 mM NaCl, 1 mM dithiothreitol, 2 mg/ml bovine serum albumin, and 1% (v/v) glycerol] with 5 μg of microsomes, 0 or 75 μM of NADPH, 0 or 2 mM PBN, and increasing concentrations of the substrate all-trans-retinal. […] Retinoids were extracted with 2 volumes of hexane and analyzed by HPLC. […] The peaks of all-trans-retinal (substrate) and all-trans-retinol (product of the reaction) were identified and quantified by comparison with pure retinoid isomeric standards. […] For each condition the non-enzymatic conversion of all-trans-retinal to all-trans-retinol measured in absence of NADPH was subtracted from the conversion obtained with NADPH to determine the NADPH-dependant activity of retinal RDHs. […]

The test system of a further data set is Rat Retina. The data set can be described thus: Light-induced retinal degeneration in rats, systemic (IP) nitrone; ERG and ONL histology. The conditions noted are these: rat, in vivo. The method, then:
Consistent with previous publications (1-2,5), a dose of 50 mg/kg PBN and S-PBN dissolved in saline was chosen for intraperitoneal injection in the rats in the treatment group. An equal volume of saline was injected into control rats.
A light-stress paradigm of 2,700 lux for 6 hours was used to test the effect of PBN at different time points before (0.5 hour, 3 hours, 6 hours, 12 hours, 16 hours, and 24 hours) or after (0.5 hour and 3 hours) light exposure. The effect of S-PBN was tested using the same dose and protocol of PBN at 0.5 hours before light exposure.
Electroretinography—After light exposure, rats were returned to their dim cyclic light (5-10 lux) environment for 7 days before ERG recordings were performed. Flash ERGs were recorded with the Diagnosys Espion E2 ERG System (Diagnosys, LLC, Lowell, Mass.). Rats were maintained in total darkness overnight and prepared for ERG recording under dim red light. They were anesthetized with ketamine (120 mg/kg body weight) and xylazine (6 mg/kg body weight) intramuscularly (IM). One drop of 10% (v/v) phenylephrine was applied to the cornea to dilate the pupil, and one drop of 0.5% (v/v) proparacaine HCl was applied for local anesthesia. Rats were kept on a heating pad at 37° C. during recordings. A gold electrode was placed on the cornea, a reference electrode was positioned in the mouth, and a ground electrode was placed on the foot; rats were then placed inside a Ganzfeld illuminating sphere. Responses were differentially amplified, averaged, and stored. For the assessment of rod photoreceptor function (scotopic ERG), five strobe flash stimuli were presented at flash intensities at −2.3, −1.3, 0.7, and 2.7 log cd·s/m^2. The amplitude of the a-wave was measured from the pre-stimulus baseline to the a-wave trough. The amplitude of the b-wave was measured from the trough of the a-wave to the peak of the b-wave. For the evaluation of cone function (photopic ERG), a strobe flash stimulus (3.3 log cd·s/m^2) was presented to dilated, light-adapted (5 minutes at 1.7 log cd·s/m^2) rats. The amplitude of the cone b-wave was measured from the trough of the a-wave to the peak of the b-wave.
Histology—After ERG recordings, rats were killed by carbon dioxide asphyxiation for light microscopic evaluation of retinal structure. Immediately after death, eyes were excised, placed in fixative (4% (w/v) paraformaldehyde, 2% (v/v) trichloroacetic acid, 20% (v/v) isopropyl alcohol, 2% (v/v) zinc chloride, and 72% (v/v) distilled water), and embedded in paraffin. Sections of 5 μm were cut along the vertical meridian through the optic nerve and stained with hematoxylin and eosin (H&E).
The PBN derivatives were injected intraperitoneally (IP) into albino SD rats at 50 mg/kg body weight at 0.5 hours before the start of light-damage exposure at 2,700 lux for 6 hours. After the exposure, the rats were moved to their dim cyclic room to recover for a week. Retinal damage/protection was assessed by functional analysis by ERG and structural analysis of histological sections. Dark adapted (12 hour) and Light adapted (for 2 hour) retinas were utilized as controls.

Take `CC(C)(C)/[N+]([O-])=C/c1ccccc1` [Compound 1, α-phenyl-N-tert-butyl nitrone]: in the data set on mouse retina, the “rod function (scotopic A-wave) after light-damage” value is reported as “significant restoration of rod function”. Further, the “inhibition of retinal RDH activity” value in data set [1] is given as “did not inhibit”. In the data set with Rat Retina, the “% Protection (ONL, Inferior retina)” value is reported as 85.0%; the “% Protection (ONL, Superior retina)” value is reported as 87.1%; the “retention of photoreceptor cells” value is listed as “approximately 90%”.
